Calls of active or inactive are those of the source.
Tests used:
[1] = target: T1, Tyrosinase (Agaricus bisporus) (UniProt O42713); test: Induction of eumelanogenesis assessed as mushroom tyrosinase-mediated simulation of eumelanogenesis by measuring oxidation of L-DOPA at 4.5 to 184.4 mM after 48 hrs by Vis-spectrophotometer analysis in absence of glutathione
T1 sequence (whole entry): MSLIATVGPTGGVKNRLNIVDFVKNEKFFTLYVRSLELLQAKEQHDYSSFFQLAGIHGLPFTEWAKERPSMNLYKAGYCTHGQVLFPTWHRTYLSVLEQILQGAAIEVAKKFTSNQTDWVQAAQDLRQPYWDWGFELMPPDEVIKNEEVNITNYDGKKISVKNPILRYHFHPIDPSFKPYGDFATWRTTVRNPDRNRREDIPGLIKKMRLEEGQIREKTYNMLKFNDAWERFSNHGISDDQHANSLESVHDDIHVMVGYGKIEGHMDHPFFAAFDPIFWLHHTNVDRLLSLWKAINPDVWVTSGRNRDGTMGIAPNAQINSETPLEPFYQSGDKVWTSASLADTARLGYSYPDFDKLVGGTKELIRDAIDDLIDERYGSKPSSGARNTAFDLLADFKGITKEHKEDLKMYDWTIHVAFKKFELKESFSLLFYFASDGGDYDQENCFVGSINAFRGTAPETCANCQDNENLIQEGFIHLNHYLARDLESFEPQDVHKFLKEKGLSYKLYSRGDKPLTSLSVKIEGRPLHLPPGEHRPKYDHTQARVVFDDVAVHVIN

[2] = target: T1, Tyrosinase (Agaricus bisporus); test: Induction of eumelanogenesis assessed as mushroom tyrosinase-mediated simulation of eumelanogenesis by measuring oxidation of L-DOPA at 4.5 to 184.4 mM after 48 hrs by Vis-spectrophotometer analysis in absence of glutathione and presence of H2O2
[3] = target: T1, Tyrosinase (Agaricus bisporus); test: Induction of pheomelanogenesis assessed as mushroom tyrosinase-mediated simulation of pheomelanogenesis by measuring oxidation of L-DOPA at 4.5 to 184.4 mM after 48 hrs by Vis-spectrophotometer analysis in presence of 0.65 to 3.2 mM of glutathione and H2O2
[4] = target: T1, Tyrosinase (Agaricus bisporus); test: Induction of pheomelanogenesis assessed as mushroom tyrosinase-mediated simulation of pheomelanogenesis by measuring oxidation of L-DOPA at 4.5 to 184.4 mM after 48 hrs by Vis-spectrophotometer analysis in presence of 0.65 to 3.2 mM of glutathione
[5] = target: T1, Tyrosinase (Agaricus bisporus); test: Inhibition of mushroom tyrosinase-mediated simulation of pheomelanogenesis assessed as oxidation of L-DOPA at 4.5 to 184.4 mM after 48 hrs by Vis-spectrophotometer analysis in presence of 16.3 to 81.3 mM of glutathione

CCCCS(=N)(=O)CCC(N)C(=O)O (racemic)
active: Activity [1] | Activity [2] | Activity [3] | Activity [4] | inhibition [5]

Reference: ChEMBL document CHEMBL3286294, “Buthionine sulfoximine diverts the melanogenesis pathway toward the production of more soluble and degradable pigments” (Bioorg Med Chem Lett, 2014)
